In patent publication US7256209B2, “Pyrazole derivatives and diabetic medicine containing them” (Ajinomoto Co., Inc., priority 2000, dated 2007):

What was measured:
[1] = system: male Wistar rats; test: Activity on rat's sugar urine excretion; type: in vivo; conditions: for The amount of excreted glucose in urine: urine collected 24 hours, per day and individual
[2] = system: male Wistar rats; test: Activity on rat's sugar urine excretion; type: in vivo; conditions: for The amount of excreted glucose in urine: 100 mg/kg oral, urine collected 24 hours, per day and individual; for activity on urinary glucose excretion as compared to Example 35 of WO01/16147 (in words): compared to Referential Example 1, Table 2; for activity on urinary glucose excretion (in words): oral administration, rat
Method: 5-week old male Wistar rats (purchased from Charles River Japan, Inc.) were used in the experiment after they were housed in a metabolic cage for about one week in advance. The test compounds were suspended in olive oil and 20 mg/ml solution was prepared so that the dosage given per 1 kg of the weight of the rats was 5 ml.
After the rats were not fed for 4 hours, the test compounds were orally administered to them at 11 a.m. Their urine was collected, from that taken just after the administration to that taken 24 hours after the administration and its volume was measured. Then, the concentration of glucose in urine was measured by glucose oxidase method and urinary glucose excreted per a day and an individual was calculated.

[3] = system: Renal brush border membrane glucose uptake; test: Inhibiting activity on renal brush border membrane glucose uptake; type: biochemical; conditions: rat renal brush border membrane, sodium-dependent 14C-D-glucose uptake
Method: The test compound was dissolved in 100 mM Mannitol-10 mM HEPES/Tris (pH 7.4) and solutions having various concentrations were prepared.
Renal brush border membrane was prepared from a rat kidney and the solutions of the test compounds were added thereto and the product was incubated at 37° C. for 30 minutes. Then ^14C-D-glucose was added and the mixture was incubated for 1 minute. After tie reaction of glucose uptake was stopped by a solution containing 1 mM of phloridzin, the activity of ^14C-D-glucose on ^14C was measured by a liquid scintillation counter. The intensity of inhibition was calculated by subtracting the amount of taken glucose that is independent on sodium from the amount of taken glucose of the object samples.

SMILES	The amount of excreted glucose in urine [2] [mg]	activity on urinary glucose excretion as compared to Example 35 of WO01/16147 (in words) [2]	activity on urinary glucose excretion (in words) [2]	other results
CCc1ccc(Cc2c(O[C@@H]3O[C@H](COC(=O)OC)[C@@H](O)[C@H](O)[C@H]3O)nn(C(C)C)c2C)cc1 [Example Compound 16, 4′-[(4-ethylphenyl)methyl]-1′-isopropyl-5′-methyl-1H-pyrazole-3′-O-(6-carbomethoxy)-β-D-glucopyranoside]	598	much higher activity	particularly high activity	The amount of excreted glucose in urine ([1]; 3 mg/kg oral): 28 mg; The amount of excreted glucose in urine ([1]; 10 mg/kg oral): 263 mg; The amount of excreted glucose in urine ([1]; 30 mg/kg oral): 294 mg; activity on urinary glucose excretion (in words) ([1]; orally administered in lower doses such as 30 mg/kg or lower): still has high activity
CCc1ccc(Cc2c(O[C@@H]3O[C@H](COC(=O)OC)[C@@H](O)[C@H](O)[C@H]3O)nn(-c3ccccc3)c2C(F)(F)F)cc1 [Example Compound 8, 4′-[(4′-ethylphenyl)methyl]-1′-phenyl-5′-trifluoromethyl-1H-pyrazole-3′-O-(6-carbomethoxy)-β-D-glucopyranoside]	4.1			
CCc1ccc(Cc2c(O[C@@H]3O[C@H](COC(=O)OC)[C@@H](O)[C@H](O)[C@H]3O)nn(Cc3ccc(OC)cc3)c2C(F)(F)F)cc1 [Example Compound 6, 4′-[(4′-ethylphenyl)methyl]-1′-[(4′-methoxyphenyl)methyl]-5′-trifluoromethyl-1H-pyrazole-3′-O-(6-carbomethoxy)-β-D-glucopyranoside]	59			
COC(=O)OC[C@H]1O[C@@H](Oc2nn(C(C)C)c(C)c2Cc2ccc(C)c(F)c2)[C@H](O)[C@@H](O)[C@@H]1O [Example Compound 14, 4′-[(3′-fluoro-4′-methylphenyl)methyl]-1′-isopropyl-5′-methyl-1H-pyrazole-3′-O-(6-carbomethoxy)-β-D-glucopyranoside]	918	much higher activity	particularly high activity	
CSc1ccc(Cc2c(O[C@@H]3O[C@H](CO)[C@@H](O)[C@H](O)[C@H]3O)n[nH]c2C(F)(F)F)cc1 [Example Compound 1, 4-((4-methylthiophenyl)methyl)-5-(trifluoromethyl)-1H-pyrazole-3-O-β-D-glucopyranoside]				Inhibition intensity (concentration of the test compounds) ([3]; 10 μM test compound): 84% (10 μM)
CCc1ccc(Cc2c(O[C@@H]3O[C@H](C(=O)O)[C@@H](O)[C@H](O)[C@H]3O)n[nH]c2C(F)(F)F)cc1 [Example Compound 2, 4-((4-ethylphenyl)methyl)-5-(trifluoromethyl)-1H-pyrazole-3-yl-O-β-D-glucopyranoside uronic acid]				Inhibition intensity (concentration of the test compounds) ([3]; 100 μM test compound): 30% (100 μM)
Cc1[nH]nc(O[C@@H]2O[C@H](CO)[C@@H](O)[C@H](O)[C@H]2O)c1Cc1ccc(OC(C)C)cc1 [Referential Example Compound 1, 4-[(4-isopropoxyphenyl)methyl]-5-methyl-1H-pyrazole-3-O-β-D-glucopyranoside, reference compound]	14			
CCc1ccc(Cc2c(O[C@@H]3O[C@H](COC(=O)OC)[C@@H](O)[C@H](O)[C@H]3O)nn(Cc3ccccc3)c2C(F)(F)F)cc1 [Example Compound 4, 4′-[(4′-ethylphenyl)methyl]-1′-benzyl-5′-trifluoromethyl-1H-pyrazole-3′-O-(6-carbomethoxy)-β-D-glucopyranoside]	27			
COC(=O)OC[C@H]1O[C@@H](Oc2nn(C(C)C)c(C)c2Cc2ccc(OC)c(F)c2)[C@H](O)[C@@H](O)[C@@H]1O [Example Compound 10, 4′-[(3′-fluoro-4′-methoxyphenyl)methyl]-1′-isopropyl-5′-methyl-1H-pyrazole-3′-O-(6-carbomethoxy)-β-D-glucopyranoside]	734	much higher activity	particularly high activity	
